This is an account of results in EP1115693B9, “SUBSTITUTED POLYCYCLIC ARYL AND HETEROARYL $i([sequence])-HETEROALKYLAMINES USEFUL FOR INHIBITING CHOLESTERYL ESTER [sequence] PROTEIN ACTIVITY” (Monsanto Company, priority 1998, dated 2000).

The target in test [1] is T1, CETP (Homo sapiens, UniProt P11597).
T1 sequence (P11597 18-493): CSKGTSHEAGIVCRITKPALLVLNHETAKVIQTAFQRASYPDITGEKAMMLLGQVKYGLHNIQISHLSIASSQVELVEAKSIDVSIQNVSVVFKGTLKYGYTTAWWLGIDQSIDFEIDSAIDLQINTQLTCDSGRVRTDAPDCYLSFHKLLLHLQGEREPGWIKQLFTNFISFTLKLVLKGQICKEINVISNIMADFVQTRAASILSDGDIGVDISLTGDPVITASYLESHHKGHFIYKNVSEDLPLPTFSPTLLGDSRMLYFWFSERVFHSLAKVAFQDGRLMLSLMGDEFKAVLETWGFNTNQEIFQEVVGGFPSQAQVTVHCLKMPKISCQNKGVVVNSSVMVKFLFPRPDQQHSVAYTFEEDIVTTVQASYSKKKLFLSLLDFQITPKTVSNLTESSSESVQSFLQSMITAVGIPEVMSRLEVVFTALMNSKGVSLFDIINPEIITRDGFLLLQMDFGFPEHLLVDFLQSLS
Briefly: Assay of CETP inhibition in human plasma: transfer of [3H]CE from [3H]CE-HDL to VLDL and LDL. It is filed as biochemical. Further details: Blood was obtained from healthy volunteers; from tissue; host or cells: pooled human EDTA plasma from healthy volunteers. Conditions: inhibition of transfer of [3H]CE from [3H]CE-HDL to VLDL and LDL. Here is the method:
ASSAY OF CETP INHIBITION IN HUMAN PLASMA
Blood was obtained from healthy volunteers, recruited from the personnel of Monsanto Company, Saint Louis, MO. Blood was collected in tubes containing EDTA (EDTA plasma pool). The EDTA human plasma pool, previously stored at -20 °C, was thawed at room temperature and centrifuged for 5 minutes to remove any particulate matter. […] Equal volumes (396 µL) of the plasma containing the [^3H]CE-HDL were added by pipette into micro tubes (Titertube®, Bio-Rad laboratories, Hercules, CA). Inhibitor compounds, dissolved as 20-50 mM stock solutions in DMSO, were serially diluted in DMSO (or an alternative solvent in some cases, such as dimethylformamide or ethanol). Four µL of each of the serial dilutions of inhibitor compounds or DMSO alone were then added to each of the tubes containing plasma (396 µL). After mixing, triplicate aliquots (100 µL) from each plasma tube were then transferred to wells of 96-well roundbottomed polystyrene microtiter plates (Corning, Corning, NY). Plates were sealed with plastic film and incubated at 37 °C for 4 hours. "Test" samples contained plasma with dilutions of inhibitor compounds. "Control" samples contained plasma with DMSO diluted to the same concentration as the test samples, but without inhibitor. "Blank" samples were prepared as "control" samples, but were left in the micro tubes at 4 °C for the 4 hour incubation and were then added to the microtiter wells at the end of the incubation period. VLDL and LDL were precipitated by the addition of 10 µL of precipitating reagent (1% (w/v) dextran sulfate (Dextralip50)/0.5 M magnesium chloride, pH 7.4) to all wells. The wells were mixed on a plate mixer and then incubated at ambient temperature for 10 min. The plates were then centrifuged at 1000 x g for 30 min at 10 °C. The supernatants (50 µL) from each well were then transferred to Picoplate™ 96 plate wells (Packard, Meriden. CT) containing Microscint™-40 (Packard, Meriden, CT). The plates were heat-sealed (TopSeal™-P, Packard, Meriden, CT) according to the manufacturer's directions and mixed for 30 min. Radioactivity was measured on a microplate scintillation counter (TopCount. Packard, Meriden, CT). The maximum percentage transfer in the control wells (% transfer) was determined using the following equation: % Transfer = ([dpmblank -dpmcontrol ] × 100)/(dpmblank) [formula]
The percentage of transfer relative to the control (% control) was determined in the wells containing inhibitor compounds was determined as follows: % Control = ([dpmblank -dpmtest ] × 100)/(dpmblank -dpmcontrol) [formula]
IC50 values were then calculated from plots of % control versus concentration of inhibitor compound. […]

In test [2] the target is T1, CETP. The experiment in a line: Assay of CETP inhibition using purified components (reconstituted buffer assay): transfer of [3H]CE from HDL to LDL. Further details: made in house; host or cells: CHO cells (serum-free conditioned medium). The format is biochemical. The following applies: 2 hours at 37°C. The procedure:
ASSAY OF CETP INHIBITION USING PURIFIED COMPONENTS (RECONSTITUTED BUFFER ASSAY)
The ability of compounds to inhibit CETP activity was assessed using an in vitro assay that measured the rate of transfer of radiolabeled cholesteryl ester ([^3H]CE) from HDL donor particles to LDL acceptor particles. Details of the assay are provided by Glenn, K. C. et al. (Glenn and Melton, "Quantification of Cholesteryl Ester Transfer Protein (CETP): A) CETP Activity and B) Immunochemical Assay of CETP Protein," Meth. Enzymol., 263, 339-351 (1996)). Human recombinant CETP can be obtained from the serum-free conditioned medium of CHO cells transfected with a cDNA for CETP and purified as described by Wang, S. et al. (J. Biol. Chem. 267, 17487-17490 (1992)). To measure CETP activity, [^3H]CE-labeled-HDL, LDL, CETP and assay buffer (50 mM tris(hydroxymethyl)aminomethane, pH 7.4; 150 mM sodium chloride; 2 mM ethylenediamine-tetraacetic acid (EDTA); 1% bovine serum albumin) were incubated in a final volume of 200 µL, for 2 hours at 37°C in 96 well plates. […] The inhibitors were then diluted 1:1 with CETP in assay buffer, and then 25 µL of that solution was mixed with 175 µL of lipoprotein pool for assay. Following incubation, LDL was differentially precipitated by the addition of 50 µL of 1% (w/v) dextran sulfate/0.5 M magnesium chloride, mixed by vortex, and incubated at room temperature for 10 minutes. A potion of the solution (200 µL) was transferred to a filter plate (Millipore). After filtration, the radioactivity present in the precipitated LDL was measured by liquid scintillation counting.
This value was defined as the IC50.

By IC50 is commonly meant the midpoint of a concentration-inhibition curve. Higher therefore signals weaker potency. At CETP [1], `OC(CN(Cc1ccc(Cl)s1)c1cccc(OC(F)(F)F)c1)C(F)(F)F` (centres unmarked) [Example 321, 3-[[(5-chloro-2-thienyl)methyl][(3-trifluoromethoxy)phenyl]amino]-1,1,1-trifluoro-2-propanol] had an IC50 above 100 µM.

In the case of `OC(CN(Cc1ccc(OC(F)(F)F)cc1)c1ccccc1)C(F)(F)F` (centres unmarked) [compound 59], the IC50 against CETP [1] amounted to 100 µM.

For the compound `OC(CN(Cc1ccc(OC(F)(F)F)cc1)c1cccc(OC(F)(F)F)c1)C(F)(F)F` (centres unmarked) [compound 60], the 50% inhibitory concentration (IC50) on CETP [1] came to 120 µM; on CETP [2], 5.5 µM.

Turning to `OC(CN(Cc1cccc(OC(F)(F)F)c1)c1ccccc1)C(F)(F)F` (centres unmarked) [compound 73], the concentration for half-maximal inhibition (IC50) against CETP [1] was 100 µM.

As to `CC(C)c1ccc(Oc2cccc(N(Cc3cccc(OC(F)(F)C(F)F)c3)CC(O)C(F)(F)F)c2)cc1` (centres unmarked) [compound 250], the results for the IC50 at CETP [1] and against CETP [2] were 31 µM and 0.44 µM, respectively.

Consider `OC(CN(Cc1cccc(OC(F)(F)C(F)F)c1)c1cccc(Oc2ccc(Cl)c(Cl)c2)c1)C(F)(F)F` (centres unmarked) [compound 256], for which the IC50 at CETP [1] amounted to 7.8 µM.

Turning to `CCCc1ccc(Oc2cccc(N(Cc3cccc(OC(F)(F)C(F)F)c3)CC(O)C(F)(F)F)c2)cc1` (centres unmarked) [compound 266], 21 µM corresponded to half-maximal inhibition against CETP [1] (IC50).

For the compound `Cc1ccc(Oc2cccc(N(Cc3cccc(OC(F)(F)C(F)F)c3)CC(O)C(F)(F)F)c2)cn1` (centres unmarked) [compound 282], the IC50 on CETP [1] turned out to be 12 µM; against CETP [2], 0.84 µM.

Consider `OC(CN(Cc1cccc(OC(F)(F)C(F)F)c1)c1cccc(N2CCC(Cc3ccccc3)CC2)c1)C(F)(F)F` (centres unmarked) [compound 316], for which the IC50 was above 100 µM on CETP [1] and 3.1 µM against CETP [2].

Turning to `OC(CN(Cc1cccc(OC(F)(F)C(F)F)c1)c1cccc(N2CCC3(CC2)OCCO3)c1)C(F)(F)F` (centres unmarked) [compound 317], the IC50 against CETP [1] was above 100 µM; on CETP [2], 3.4 µM.

In the case of `OC(CN(Cc1ccc(Cl)s1)c1cccc(OC(F)(F)F)c1)C(F)(F)F` (centres unmarked) [compound 346], the results for the IC50 against CETP [1] and at CETP [2] were above 100 µM and 7.7 µM, respectively.

In the case of `OC(CN(Cc1cccc(OC(F)(F)C(F)F)c1)c1cccc(OCc2ccccc2)c1)C(F)(F)F` (centres unmarked) [compound 373], the IC50 was determined as 12 µM on CETP [1] and 0.22 µM against CETP [2].

For the compound `Cc1ccc(Oc2cccc(N(Cc3cccc(SC(F)(F)F)c3)CC(O)C(F)(F)F)c2)cc1` (centres unmarked) [compound 637], the IC50 at CETP [1] stood at 8 µM; on CETP [2], 0.47 µM.

`OC(CN(Cc1cccc(OC(F)(F)C(F)F)c1)c1cccc(Oc2ccc(F)c(F)c2)c1)C(F)(F)F` (centres unmarked) [compound 638]: the figures for the IC50 on CETP [1] and against CETP [2] were 11 µM and 0.26 µM, respectively.

`OC(CN(Cc1cccc(OC(F)(F)C(F)F)c1)c1cccc(Oc2ccc(F)cc2F)c1)C(F)(F)F` (centres unmarked) [compound 639]: the IC50 against CETP [1] worked out at 5 µM; against CETP [2], 0.21 µM.

On to `OC(CN(Cc1cccc(SC(F)(F)F)c1)c1cc(Oc2ccc(F)cc2)cc(C(F)(F)F)c1)C(F)(F)F` (centres unmarked) [compound 642], for which the IC50 turned out to be 50 µM against CETP [1] and 1.1 µM against CETP [2].

With `CC(C)Oc1cccc(CN(CC(O)C(F)(F)F)c2cccc(Oc3ccc(F)cc3)c2)c1` (centres unmarked) [compound 647], the figures for the IC50 against CETP [1] and against CETP [2] were 13 µM and 0.52 µM, respectively.

As for `CCCCOc1cccc(CN(CC(O)C(F)(F)F)c2cccc(Oc3ccc(F)cc3)c2)c1` (centres unmarked) [compound 649], the half-inhibitory concentration (IC50) against CETP [1] was above 100 µM; on CETP [2], 4.9 µM.

Take `CCC(C)Oc1cccc(CN(CC(O)C(F)(F)F)c2cccc(Oc3ccc(F)cc3)c2)c1` (centres unmarked) [compound 650]: the IC50 on CETP [1] worked out at 30 µM; at CETP [2], 0.41 µM.

As to `OC(CN(Cc1cccc(OCC2CC2)c1)c1cccc(Oc2ccc(F)cc2)c1)C(F)(F)F` (centres unmarked) [compound 651], the IC50 against CETP [2] amounted to 0.99 µM.

The compound `CC(C)COc1cccc(CN(CC(O)C(F)(F)F)c2cccc(Oc3ccc(F)cc3)c2)c1` (centres unmarked) [compound 652] came in with an IC50 against CETP [2] of 1.5 µM.

On to `OC(CN(Cc1cccc(OC2CCCC2)c1)c1cccc(Oc2ccc(F)cc2)c1)C(F)(F)F` (centres unmarked) [compound 653], for which the IC50 on CETP [1] turned out to be 38 µM; at CETP [2], 0.91 µM.

Consider `N#Cc1ccc(Oc2cccc(N(Cc3cccc(OC(F)(F)C(F)F)c3)CC(O)C(F)(F)F)c2)cc1` (centres unmarked) [compound 657], for which the IC50 against CETP [1] is 24 µM; against CETP [2], 1 µM.

For `OC(CN(Cc1cccc(OC(F)(F)C(F)F)c1)c1cccc(Oc2ccc(OC(F)(F)F)cc2)c1)C(F)(F)F` (centres unmarked) [compound 658], the IC50 at CETP [1] stood at 30 µM; against CETP [2] it was 0.44 µM.

`OC(CN(Cc1ccccc1C(F)(F)F)c1cccc(F)c1)C(F)(F)F` (centres unmarked) [compound 670] yielded a half-inhibitory concentration (IC50) at CETP [2] above 100 µM.

In turn, `Cc1ccccc1CN(CC(O)C(F)(F)F)c1cccc(F)c1` (centres unmarked) [compound 671] gave an IC50 at CETP [2] above 100 µM.

With `Cc1ccc(CN(CC(O)C(F)(F)F)c2ccc(C(F)(F)F)cc2)cc1` (centres unmarked) [compound 672], the IC50 against CETP [2] is 100 µM.

Turning to `OC(CN(Cc1cccc(Oc2cccc(C(F)(F)F)c2)c1)c1cccc(F)c1)C(F)(F)F` (centres unmarked) [compound 674], on CETP [2], the IC50 was above 100 µM.

In turn, `OC(CN(Cc1ccccc1F)Cc1ccccc1C(F)(F)F)C(F)(F)F` (centres unmarked) [compound 696] gave an IC50 against CETP [2] of 100 µM.

On to `OC(CF)CN(Cc1cccc(OC(F)(F)F)c1)Cc1cccc(OC(F)(F)F)c1` (centres unmarked) [compound 697], for which the IC50 against CETP [2] stood at 55 µM. This IC50 lies about 1.8-fold lower than the previous one.

`COc1cc2c(cc1N(Cc1cccc(OC(F)(F)F)c1)CC(O)C(F)(F)F)oc1ccccc12` (centres unmarked) [compound 698] had an IC50 at CETP [2] of 100 µM. This IC50 is about 1.8-fold higher than that of the compound before.

As for `OC(COC(F)(F)C(F)F)CN(Cc1cccc(OC(F)(F)C(F)F)c1)c1cccc(Oc2ccc(F)cc2)c1` (centres unmarked) [compound 701], half-maximal inhibition against CETP [2] (IC50) required 4.5 µM.

Turning to `OC(COC(F)(F)C(F)F)CN(Cc1cccc(OC(F)(F)C(F)F)c1)c1cccc(Oc2ccc(C(F)(F)F)cc2)c1` (centres unmarked) [compound 702], on CETP [2], the midpoint of inhibition, the IC50, lay at 35 µM.
